The numbers were not newly measured in US8580825B2, “Oxadiazole inhibitors of leukotriene production” (Boehringer Ingelheim International GmbH, priority 2010, dated 2013), which cites them from elsewhere.

This data set has as its system human glomerulonephritis. Particulars: clinical trial; cited from earlier work.

With `CC(C)(C)Sc1c(CC(C)(C)C(=O)O)n(Cc2ccc(Cl)cc2)c2ccc(OCc3ccc4ccccc4n3)cc12` [MK-591], the effect on proteinuria result is recorded as “reduce proteinuria”.
